A short description of assay [1]: Positive allosteric modulation of human (alpha4beta2)2alpha4 nAChR expressed in HEK cells preincubated for 15 mins followed by dihydro-beta-erythroidine hydrobromide addition by fluorometric analysis. The format is cell-based. Conditions: HEK293.
In assay [2] the target is T1, Neuronal acetylcholine receptor; alpha4/beta2 (Homo sapiens, UniProt P17787+P43681). The experiment in a line: Positive allosteric modulation of human (alpha4beta2)2beta2 nAChR expressed in HEK cells preincubated for 15 mins followed by dihydro-beta-erythroidine hydrobromide addition by fluorometric analysis. Format: cell-based.
T1 sequence (P17787 whole entry): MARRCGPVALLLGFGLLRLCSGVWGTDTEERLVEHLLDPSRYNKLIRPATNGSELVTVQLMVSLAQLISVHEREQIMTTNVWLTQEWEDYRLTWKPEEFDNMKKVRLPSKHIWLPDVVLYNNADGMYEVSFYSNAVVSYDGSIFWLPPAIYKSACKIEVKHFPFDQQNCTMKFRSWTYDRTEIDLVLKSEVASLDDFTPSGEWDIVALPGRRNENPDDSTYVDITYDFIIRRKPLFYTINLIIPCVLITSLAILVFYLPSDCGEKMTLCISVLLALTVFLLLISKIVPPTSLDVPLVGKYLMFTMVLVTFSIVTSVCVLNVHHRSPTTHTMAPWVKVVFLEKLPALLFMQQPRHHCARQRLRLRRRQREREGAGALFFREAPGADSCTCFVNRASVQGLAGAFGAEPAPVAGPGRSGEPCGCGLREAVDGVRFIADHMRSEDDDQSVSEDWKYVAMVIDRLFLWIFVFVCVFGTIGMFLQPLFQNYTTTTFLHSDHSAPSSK
T1 sequence (P43681 whole entry): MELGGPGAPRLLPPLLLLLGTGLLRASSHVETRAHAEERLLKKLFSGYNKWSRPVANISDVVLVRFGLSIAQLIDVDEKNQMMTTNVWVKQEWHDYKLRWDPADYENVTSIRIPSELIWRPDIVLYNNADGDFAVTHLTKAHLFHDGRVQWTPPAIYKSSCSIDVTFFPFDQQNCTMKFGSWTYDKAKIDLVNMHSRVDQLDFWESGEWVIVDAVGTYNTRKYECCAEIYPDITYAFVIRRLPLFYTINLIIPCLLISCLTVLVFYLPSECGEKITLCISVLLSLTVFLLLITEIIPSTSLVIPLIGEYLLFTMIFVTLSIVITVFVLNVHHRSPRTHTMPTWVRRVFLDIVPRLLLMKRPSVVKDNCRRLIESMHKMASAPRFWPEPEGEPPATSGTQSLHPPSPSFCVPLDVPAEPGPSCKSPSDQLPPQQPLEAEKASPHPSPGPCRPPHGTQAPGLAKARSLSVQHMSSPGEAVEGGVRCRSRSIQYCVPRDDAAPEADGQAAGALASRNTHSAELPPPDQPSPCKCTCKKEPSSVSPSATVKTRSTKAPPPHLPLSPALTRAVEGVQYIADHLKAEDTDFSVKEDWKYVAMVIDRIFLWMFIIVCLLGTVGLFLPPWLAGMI
Assay [3] concerns the target Neuronal acetylcholine receptor; alpha4/beta4 (Homo sapiens, UniProt P30926+P43681). The experiment in a line: Positive allosteric modulation of human alpha4beta4 nAChR expressed in HEK cells preincubated for 15 mins followed by dihydro-beta-erythroidine hydrobromide addition by fluorometric analysis. Format: cell-based.
In assay [4] the target is Nicotinic acetylcholine receptor alpha2/beta2 (Homo sapiens, UniProt P02708+P17787). The experiment in a line: Positive allosteric modulation of human alpha2beta2 nAChR expressed in HEK cells preincubated for 15 mins followed by dihydro-beta-erythroidine hydrobromide addition by fluorometric analysis. Format: cell-based.
Assay [5] has as its target Nicotinic acetylcholine receptor alpha2/beta4 (Homo sapiens, UniProt P02708+P30926). The experiment in a line: Positive allosteric modulation of human alpha2beta4 nAChR expressed in HEK cells preincubated for 15 mins followed by dihydro-beta-erythroidine hydrobromide addition by fluorometric analysis. Format: cell-based.
Assay [6] addresses T1, Neuronal acetylcholine receptor; alpha4/beta2. The experiment in a line: Positive allosteric modulation of human alpha4beta2 nAChR expressed in HEK cells preincubated for 15 mins followed by dihydro-beta-erythroidine hydrobromide addition by fluorometric analysis. Format: cell-based.
Assay [7] addresses Neuronal acetylcholine receptor subunit alpha-7 (Homo sapiens, UniProt P36544). The experiment in a line: Inhibition of human alpha7 nAChR expressed in Xenopus oocytes at -80 mV holding potential by electro-physiological analysis. The format is cell-based.
The target of assay [8] is T2, 5-hydroxytryptamine receptor 3A (Homo sapiens, UniProt P46098).
T2 sequence (P46098 whole entry): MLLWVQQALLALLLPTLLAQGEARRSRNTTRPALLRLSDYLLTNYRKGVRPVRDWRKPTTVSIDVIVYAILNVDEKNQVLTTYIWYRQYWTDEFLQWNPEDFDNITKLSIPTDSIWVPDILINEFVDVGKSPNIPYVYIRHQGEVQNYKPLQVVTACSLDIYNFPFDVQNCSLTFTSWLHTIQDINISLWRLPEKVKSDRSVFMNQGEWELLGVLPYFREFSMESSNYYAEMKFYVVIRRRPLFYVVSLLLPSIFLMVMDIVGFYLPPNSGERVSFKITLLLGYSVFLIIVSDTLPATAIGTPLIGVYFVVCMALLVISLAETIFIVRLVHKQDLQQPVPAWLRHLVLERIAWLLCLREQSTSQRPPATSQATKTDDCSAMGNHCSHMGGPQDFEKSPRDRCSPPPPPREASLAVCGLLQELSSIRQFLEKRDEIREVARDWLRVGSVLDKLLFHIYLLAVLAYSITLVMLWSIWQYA
The experiment in a line: Antagonist activity at 5-HT3A receptor (unknown origin) assessed as inhibition of serotonin-induced peak currents.

Assay [9] deals with GABA-A receptor; alpha-6/beta-3/gamma-2 (Homo sapiens) (UniProt P18507+P28472+Q16445). The experiment in a line: Positive allosteric modulation of recombinant human GABAA receptor alpha6beta3gamma2 expressed in Xenopus oocytes assessed as potentiation of GABA induced chloride currents relative to GABA. The format is cell-based.
Assay [10] concerns the target GABA-A receptor; alpha-1/beta-3/gamma-2 (Homo sapiens) (UniProt P14867+P18507+P28472). The experiment in a line: Positive allosteric modulation of recombinant human GABAA receptor alpha1beta3gamma2 expressed in Xenopus oocytes assessed as potentiation of GABA induced chloride current response relative to GABA. Format: cell-based.
For assay [11], the target named is GABA-A receptor; alpha-2/beta-3/gamma-2 (Homo sapiens, UniProt P18507+P28472+P47869). The experiment in a line: Displacement of [3H]Ro15-1788 from human GABAA receptor alpha2beta3gamma2 expressed in LTK cells […]. Format: cell-based.
Sequence of GABA-A receptor; alpha-2/beta-3/gamma-2 (P18507 whole entry): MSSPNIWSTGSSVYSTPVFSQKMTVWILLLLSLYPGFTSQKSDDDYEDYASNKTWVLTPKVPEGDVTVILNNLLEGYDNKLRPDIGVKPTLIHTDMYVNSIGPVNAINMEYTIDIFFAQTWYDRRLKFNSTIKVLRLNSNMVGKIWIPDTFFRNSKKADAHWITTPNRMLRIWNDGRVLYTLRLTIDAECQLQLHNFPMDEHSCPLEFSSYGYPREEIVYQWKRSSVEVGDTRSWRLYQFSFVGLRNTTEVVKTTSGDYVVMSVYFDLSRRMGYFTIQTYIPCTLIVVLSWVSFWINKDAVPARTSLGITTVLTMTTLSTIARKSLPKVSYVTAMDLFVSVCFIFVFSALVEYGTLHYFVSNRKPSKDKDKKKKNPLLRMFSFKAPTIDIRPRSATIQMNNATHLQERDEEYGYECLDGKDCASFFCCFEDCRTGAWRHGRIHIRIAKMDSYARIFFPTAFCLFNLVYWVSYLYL
Sequence of GABA-A receptor; alpha-2/beta-3/gamma-2 (P28472 whole entry): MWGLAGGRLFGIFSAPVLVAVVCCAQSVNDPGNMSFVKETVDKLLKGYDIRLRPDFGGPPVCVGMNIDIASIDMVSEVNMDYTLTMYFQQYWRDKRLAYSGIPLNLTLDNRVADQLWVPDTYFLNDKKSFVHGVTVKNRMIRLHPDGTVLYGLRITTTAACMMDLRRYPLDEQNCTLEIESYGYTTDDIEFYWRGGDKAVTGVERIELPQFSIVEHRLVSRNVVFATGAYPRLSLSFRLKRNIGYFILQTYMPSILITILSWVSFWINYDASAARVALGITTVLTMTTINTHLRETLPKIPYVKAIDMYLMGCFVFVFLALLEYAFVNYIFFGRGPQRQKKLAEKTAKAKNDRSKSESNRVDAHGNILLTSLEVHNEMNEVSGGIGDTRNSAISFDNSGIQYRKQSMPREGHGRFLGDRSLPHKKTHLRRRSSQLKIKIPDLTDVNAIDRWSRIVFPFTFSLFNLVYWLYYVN
Sequence of GABA-A receptor; alpha-2/beta-3/gamma-2 (P47869 whole entry): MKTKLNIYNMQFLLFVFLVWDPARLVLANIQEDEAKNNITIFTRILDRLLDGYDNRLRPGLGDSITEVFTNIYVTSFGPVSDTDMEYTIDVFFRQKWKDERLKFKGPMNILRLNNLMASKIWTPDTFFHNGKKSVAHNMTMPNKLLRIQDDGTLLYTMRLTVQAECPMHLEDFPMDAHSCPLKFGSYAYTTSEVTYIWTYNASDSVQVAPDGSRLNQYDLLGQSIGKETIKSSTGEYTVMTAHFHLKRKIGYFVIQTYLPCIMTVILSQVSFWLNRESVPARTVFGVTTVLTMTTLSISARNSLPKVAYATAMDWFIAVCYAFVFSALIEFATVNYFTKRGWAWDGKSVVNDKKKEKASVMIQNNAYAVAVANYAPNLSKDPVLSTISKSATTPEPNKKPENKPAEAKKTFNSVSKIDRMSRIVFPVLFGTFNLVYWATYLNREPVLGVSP
Assay [12] addresses GABA-A receptor; alpha-5/beta-3/gamma-2 (Homo sapiens) (UniProt P18507+P28472+P31644). The experiment in a line: Positive allosteric modulation of recombinant human GABAA receptor alpha5beta3gamma2 expressed in Xenopus laevis oocytes assessed as potentiation of GABA induced chloride currents relative to GABA. The format is cell-based.
In assay [13] the target is T3, GABA A receptor alpha-4/beta-3/gamma-2 (Homo sapiens, UniProt P18507+P28472+P48169). The experiment in a line: Displacement of [3H][…] from human GABAA receptor alpha4beta3gamma2 expressed in LTK cells […]. Format: cell-based. In general terms: In a radioligand displacement assay an active substance lowers the binding of a labelled ligand.
T3 sequence (P18507 whole entry): as the sequence (P18507 whole entry) above
T3 sequence (P28472 whole entry): as the sequence (P28472 whole entry) above
T3 sequence (P48169 whole entry): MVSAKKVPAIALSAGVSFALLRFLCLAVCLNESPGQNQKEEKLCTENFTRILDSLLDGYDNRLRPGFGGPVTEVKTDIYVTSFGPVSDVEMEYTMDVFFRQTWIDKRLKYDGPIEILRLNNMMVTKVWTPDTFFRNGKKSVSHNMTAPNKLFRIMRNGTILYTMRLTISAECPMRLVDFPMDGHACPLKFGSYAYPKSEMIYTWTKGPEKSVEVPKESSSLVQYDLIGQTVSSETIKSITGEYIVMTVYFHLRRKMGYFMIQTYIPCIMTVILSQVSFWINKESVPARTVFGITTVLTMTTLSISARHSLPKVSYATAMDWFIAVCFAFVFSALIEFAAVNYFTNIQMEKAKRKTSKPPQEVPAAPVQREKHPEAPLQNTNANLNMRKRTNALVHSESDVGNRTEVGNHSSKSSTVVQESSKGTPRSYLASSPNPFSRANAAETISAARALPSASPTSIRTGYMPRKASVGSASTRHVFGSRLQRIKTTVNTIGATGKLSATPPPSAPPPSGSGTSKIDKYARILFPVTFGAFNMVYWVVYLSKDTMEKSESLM

Assay [14] has as its target GABA-A receptor; alpha-2/beta-3/gamma-2 (Homo sapiens) (UniProt P18507+P28472+P47869). The experiment in a line: Positive allosteric modulation of recombinant human GABAA receptor alpha2beta3gamma2 expressed in Xenopus oocytes assessed as potentiation of GABA induced chloride currents relative to GABA. Format: cell-based.
Assay [15] has as its target GABA-A receptor; alpha-3/beta-3/gamma-2 (Homo sapiens) (UniProt P18507+P28472+P34903). The experiment in a line: Positive allosteric modulation of recombinant human GABAA receptor alpha3beta3gamma2 expressed in Xenopus laevis oocytes assessed as potentiation of GABA induced chloride currents relative to GABA. The format is cell-based.
The target in assay [16] is T3, GABA A receptor alpha-4/beta-3/gamma-2. The experiment in a line: Positive allosteric modulation of recombinant human GABAA receptor alpha4beta3gamma2 expressed in Xenopus laevis oocytes assessed as potentiation of GABA induced chloride currents relative to GABA. The format is cell-based.
Assay [17] has as its target GABA-A receptor; alpha-5/beta-3/gamma-2 (Homo sapiens, UniProt P18507+P28472+P31644). The experiment in a line: Displacement of [3H]Ro15-1788 from human GABAA receptor alpha5beta3gamma2 expressed in LTK cells […]. The format is cell-based.
The nature of assay [18]: Positive allosteric modulation of wild-type C57BL/6J mouse mitral cell GABAA receptor at 9 to 10 mV holding potential by whole cell patch-clamp method.
The target in assay [19] is Gamma-aminobutyric acid receptor subunit alpha-1/beta-3/gamma-2 (Rattus norvegicus, UniProt P18508+P62813+P63079). The experiment in a line: Displacement of [3H]-flunitrazepam from recombinant rat GABAA receptor alpha1beta3gamma2S expressed in HEK293 cell membranes after 90 mins by liquid scintillation counting method.
Assay [20] deals with Gamma-aminobutyric acid receptor subunit alpha-2/beta-3/gamma-2 (Rattus norvegicus, UniProt P18508+P23576+P63079). The experiment in a line: Displacement of [3H]-flunitrazepam from recombinant rat GABAA receptor alpha2beta3gamma2S expressed in HEK293 cell membranes after 90 mins by liquid scintillation counting method.
The target of assay [21] is Gamma-aminobutyric acid receptor subunit alpha-3/beta-3/gamma-2 (Rattus norvegicus, UniProt P18508+P20236+P63079). The experiment in a line: Displacement of [3H]-flunitrazepam from recombinant rat GABAA receptor alpha3beta3gamma2S expressed in HEK293 cell membranes after 90 mins by liquid scintillation counting method.
The target of assay [22] is GABA A receptor alpha-5/beta-3/gamma-2 (Rattus norvegicus, UniProt P18508+P19969+P63079). The experiment in a line: Displacement of [3H]-flunitrazepam from recombinant rat GABAA receptor alpha5beta3gamma2S expressed in HEK293 cell membranes after 90 mins by liquid scintillation counting method.

Molecules are shown by their SMILES. pEC50, pIC50, pKi: −log10 of the molar value.

Sequence of Neuronal acetylcholine receptor; alpha4/beta4 (P30926 whole entry): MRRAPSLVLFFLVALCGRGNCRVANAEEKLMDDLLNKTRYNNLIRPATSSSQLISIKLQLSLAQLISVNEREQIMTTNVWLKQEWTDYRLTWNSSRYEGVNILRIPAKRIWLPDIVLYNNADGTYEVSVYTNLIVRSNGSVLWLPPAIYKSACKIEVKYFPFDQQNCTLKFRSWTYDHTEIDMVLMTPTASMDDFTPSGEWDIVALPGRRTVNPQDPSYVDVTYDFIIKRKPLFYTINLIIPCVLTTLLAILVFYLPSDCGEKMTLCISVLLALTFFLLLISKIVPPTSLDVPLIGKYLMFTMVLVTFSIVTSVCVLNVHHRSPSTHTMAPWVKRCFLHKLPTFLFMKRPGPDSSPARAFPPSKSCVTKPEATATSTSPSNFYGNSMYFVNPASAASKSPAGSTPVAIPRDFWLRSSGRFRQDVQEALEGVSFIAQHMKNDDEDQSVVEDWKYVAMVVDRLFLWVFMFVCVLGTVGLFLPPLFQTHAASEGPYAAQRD
Sequence of Neuronal acetylcholine receptor; alpha4/beta4 (P43681 whole entry): as the sequence (P43681 whole entry) above
Sequence of Neuronal acetylcholine receptor subunit alpha-7 (P36544 whole entry): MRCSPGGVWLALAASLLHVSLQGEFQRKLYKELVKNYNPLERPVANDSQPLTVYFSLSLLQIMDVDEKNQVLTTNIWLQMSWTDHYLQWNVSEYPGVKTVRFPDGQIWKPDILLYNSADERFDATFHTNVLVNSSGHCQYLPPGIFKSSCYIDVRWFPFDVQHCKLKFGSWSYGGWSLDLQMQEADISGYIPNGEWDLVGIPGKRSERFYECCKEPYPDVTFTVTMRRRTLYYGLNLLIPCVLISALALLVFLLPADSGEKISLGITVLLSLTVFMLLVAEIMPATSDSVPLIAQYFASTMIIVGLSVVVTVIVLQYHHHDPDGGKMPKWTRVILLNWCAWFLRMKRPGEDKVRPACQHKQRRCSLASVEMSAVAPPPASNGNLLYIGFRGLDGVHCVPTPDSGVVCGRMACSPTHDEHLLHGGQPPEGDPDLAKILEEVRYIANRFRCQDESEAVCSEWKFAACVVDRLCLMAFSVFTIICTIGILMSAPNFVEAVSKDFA
Sequence of GABA-A receptor; alpha-5/beta-3/gamma-2 (P18507 whole entry): as the sequence (P18507 whole entry) above
Sequence of GABA-A receptor; alpha-5/beta-3/gamma-2 (P28472 whole entry): as the sequence (P28472 whole entry) above
Sequence of GABA-A receptor; alpha-5/beta-3/gamma-2 (P31644 whole entry): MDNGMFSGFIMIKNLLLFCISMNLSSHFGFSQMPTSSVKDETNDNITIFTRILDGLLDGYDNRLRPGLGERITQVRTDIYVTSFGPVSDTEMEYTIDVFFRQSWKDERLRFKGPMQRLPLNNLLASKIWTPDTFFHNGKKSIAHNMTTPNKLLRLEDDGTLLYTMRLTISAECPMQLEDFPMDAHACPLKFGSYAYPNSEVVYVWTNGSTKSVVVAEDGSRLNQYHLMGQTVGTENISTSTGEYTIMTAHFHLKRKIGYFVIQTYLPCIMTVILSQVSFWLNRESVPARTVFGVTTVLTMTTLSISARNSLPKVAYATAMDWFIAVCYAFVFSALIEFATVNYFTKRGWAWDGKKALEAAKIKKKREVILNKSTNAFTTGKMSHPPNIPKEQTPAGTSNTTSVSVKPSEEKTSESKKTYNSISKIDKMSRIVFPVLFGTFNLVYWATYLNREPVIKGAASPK

A word on the pEC50: it is −log10 of the EC50, conventionally taken in molar units. `O=C(N[C@@H]1CCCNC1)c1cc2cccc(Br)c2s1`: the negative-log EC50 (pEC50) in assay [1] is 6.78; in [2], 6.56; in assay [3], 6.63; in assay [4], 6.18; in [5], 6.54; in assay [6], 6.35.
The pIC50 is −log10 of the IC50, conventionally taken in molar units. As to `C#CCNc1nc(NCCCCC2CCN(Cc3ccccc3)CC2)c(C#N)cc1C#N`, the figures for the pIC50 in [7] and in assay [8] were 6.49 and 5.85, respectively.
The pKi is the Ki on a negative log10 scale, so that one unit is a factor of ten. Turning to `COc1ccc(-n2nc3c4cc(Cl)ccc4[nH]cc-3c2=O)cc1`, the fold change (FC) in assay [9] worked out at 20; in assay [10], 10; in [12], 2; in [14], 8; in [15], 5; in [16] it was 2. Moreover, the pKi in assay [11] is less than 5.00; in assay [13] it was less than 5.00; in [17] it was 9.52.
In [18], `CC1CC(=O)C=C(Nc2ccc(OC(F)(F)F)cc2)C1` (configuration not stated) gave a pEC50 of 4.61.
`C#Cc1ccc2c(c1)C(c1ccccc1F)=N[C@H](C)c1c(C(=O)NC)ncn1-2`: the pKi in assay [19] was 6.07; in [20], 6.44; in assay [21], 6.18; in assay [22] it was 7.26.

(Values after ChEMBL document CHEMBL4219030, “Progress in the discovery of small molecule modulators of the Cys-loop superfamily receptors” (Bioorg Med Chem Lett, 2017).)
